Measured values from patent US20090215778A1, “Alpha-substituted Arylmethyl Piperazine Pyrazolo [1,5-alpha]Pyrimidine Amide Derivatives” (priority 2007, published 2009).

Experiments:
HIV-1, NL4-3 strain = experiment: Virus infection assay (virus entry and single-cycle infection); type: cell-based; details: Human immunodeficiency virus 1, NL43, TZM-b1, read-out: Nl4
How it was run: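 Single-cycle entry/infection read-out: β-galactosidase chemiluminescence measured one day after infection. Compounds were present during a 4 h, 37 °C exposure of TZM-b1 reporter cells to NL4-3 virus at MOI 0.01 plus DEAE-dextran (80 μg/mL final), followed by addition of complete medium.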

[1] = target: T1, HIV Env six-helix bundle (6HB) structure (Human immunodeficiency virus type 1 group M subtype B, UniProt P04579); experiment: Six-helix bundle (6HB) assay; type: cell-based, HIV-1 (strain RF)
T1 construct: H9 cells chronically infected with HIV-1 (H9/HIV-1RF); endogenous in cells; host or cells: H9 cells chronically infected with HIV-1 strain RF (Env is made from the virus in the infected cells, not by transfection)
How it was run: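 Flow cytometry measured binding of a six-helix-bundle-specific polyclonal antibody, detected with PE-labelled secondary at 4 °C for 45 min, on H9/HIV-1 RF chronically infected cells. Compound was given 30 min at 37 °C before 1 μg/mL soluble CD4 induction for 1 h. Inhibition appears as reduced fluorescence.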

T1 sequence (P04579 32-519): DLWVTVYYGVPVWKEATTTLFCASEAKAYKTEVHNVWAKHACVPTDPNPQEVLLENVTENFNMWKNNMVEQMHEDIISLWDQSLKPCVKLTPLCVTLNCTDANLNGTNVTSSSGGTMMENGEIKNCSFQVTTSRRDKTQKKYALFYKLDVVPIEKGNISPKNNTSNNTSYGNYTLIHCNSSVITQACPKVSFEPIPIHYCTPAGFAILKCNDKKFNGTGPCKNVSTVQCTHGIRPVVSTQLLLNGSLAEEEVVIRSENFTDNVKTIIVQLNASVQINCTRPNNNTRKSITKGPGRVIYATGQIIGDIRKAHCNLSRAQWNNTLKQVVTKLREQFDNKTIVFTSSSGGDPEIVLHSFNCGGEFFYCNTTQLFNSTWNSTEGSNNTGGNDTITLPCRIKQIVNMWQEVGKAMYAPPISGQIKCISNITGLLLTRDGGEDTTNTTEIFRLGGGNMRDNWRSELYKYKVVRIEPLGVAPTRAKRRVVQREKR
T1 sequence (P04579 520-865): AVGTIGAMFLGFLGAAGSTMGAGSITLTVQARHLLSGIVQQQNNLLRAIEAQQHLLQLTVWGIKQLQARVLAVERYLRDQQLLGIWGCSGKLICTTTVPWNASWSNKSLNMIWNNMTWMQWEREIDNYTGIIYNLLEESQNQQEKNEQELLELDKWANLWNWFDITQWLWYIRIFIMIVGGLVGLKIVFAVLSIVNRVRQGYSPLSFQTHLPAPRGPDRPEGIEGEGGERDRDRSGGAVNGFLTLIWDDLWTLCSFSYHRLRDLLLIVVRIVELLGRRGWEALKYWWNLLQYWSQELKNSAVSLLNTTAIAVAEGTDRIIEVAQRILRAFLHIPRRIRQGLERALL

Row | SMILES | IC50 (HIV-1, NL4-3 strain) [µM] | IC50 [1] [µM]
1 | COc1ccc(-c2nc3c(C(=O)N4CCN(C(CO)c5cc(F)cc(F)c5OC)C[C@H]4C)cnn3c(C(F)(F)F)c2C)cc1 (stereo partly drawn) [methanone, [(2R)-4-[1-(3,5-difluoro-2-methoxyphenyl)-2-hydroxyethyl]-2-methyl-1-piperazinyl][5-(4-methoxyphenyl)-6-methyl-7-(trifluoromethyl)pyrazolo[1,5-α]pyrimidin-3-yl]-] | < 1 | < 1
2 | COc1ccc(-c2nc3c(C(=O)N4CCN(C(CO)c5cc(F)cc(F)c5)C[C@H]4C)cnn3c(C(F)(F)F)c2C)cc1 (stereo partly drawn) [methanone, [(2R)-4-[1-(3,5-difluorophenyl)-2-hydroxyethyl]-2-methyl-1-piperazinyl][5-(4-methoxyphenyl)-6-methyl-7-(trifluoromethyl)pyrazolo[1,5-α]pyrimidin-3-yl]-] | < 1 | < 1
3 | COc1ccc(-c2nc3c(C(=O)N4CCN(C(CO)c5cccc(N)c5)C[C@H]4C)cnn3c(C(F)(F)F)c2C)cc1 (stereo partly drawn) [methanone, [(2R)-4-[1-(3-aminophenyl)-2-hydroxyethyl]-2-methyl-1-piperazinyl][5-(4-methoxyphenyl)-6-methyl-7-(trifluoromethyl)pyrazolo[1,5-α]pyrimidin-3-yl]-] | < 1 | < 1
4 | COc1ccc(-c2nc3c(C(=O)N4CCN(C(CO)c5cccc(Br)c5)C[C@H]4C)cnn3c(C(F)(F)F)c2C)cc1 (stereo partly drawn) [methanone, [(2R)-4-[1-(3-bromophenyl)-2-hydroxyethyl]-2-methyl-1-piperazinyl][5-(4-methoxyphenyl)-6-methyl-7-(trifluoromethyl)pyrazolo[1,5-α]pyrimidin-3-yl]-] | < 1 | < 1
5 | COc1ccc(-c2nc3c(C(=O)N4CCN(C(CO)c5cccc(Cl)c5)C[C@H]4C)cnn3c(C(F)(F)F)c2C)cc1 (stereo partly drawn) [methanone, [(2R)-4-[1-(3-chlorophenyl)-2-hydroxyethyl]-2-methyl-1-piperazinyl][5-(4-methoxyphenyl)-6-methyl-7-(trifluoromethyl)pyrazolo[1,5-α]pyrimidin-3-yl]-] | < 1 | < 1
6 | COc1ccc(-c2nc3c(C(=O)N4CCN(C(CO)c5cc(F)cc(OC)c5)C[C@H]4C)cnn3c(C(F)(F)F)c2C)cc1 (stereo partly drawn) [methanone, [(2R)-4-[1-(3-fluoro-5-methoxyphenyl)-2-hydroxyethyl]-2-methyl-1-piperazinyl][5-(4-methoxyphenyl)-6-methyl-7-(trifluoromethyl)pyrazolo[1,5-α]pyrimidin-3-yl]-] | < 1 | < 1
7 | COc1ccc(-c2nc3c(C(=O)N4CCN(C(CO)c5cccc(F)c5)C[C@H]4C)cnn3c(C(F)(F)F)c2C)cc1 (stereo partly drawn) [methanone, [(2R)-4-[1-(3-fluorophenyl)-2-hydroxyethyl]-2-methyl-1-piperazinyl][5-(4-methoxyphenyl)-6-methyl-7-(trifluoromethyl)pyrazolo[1,5-α]pyrimidin-3-yl]-] | < 1 | < 1
8 | COc1ccc(-c2nc3c(C(=O)N4CCN(C(CO)c5ccoc5)C[C@H]4C)cnn3c(C(F)(F)F)c2C)cc1 (stereo partly drawn) [methanone, [(2R)-4-[1-(3-furanyl)-2-hydroxyethyl]-2-methyl-1-piperazinyl][5-(4-methoxyphenyl)-6-methyl-7-(trifluoromethyl)pyrazolo[1,5-α]pyrimidin-3-yl]-] | < 1 | < 1
9 | COc1ccc(-c2nc3c(C(=O)N4CCN(C(CO)c5ccc(F)cc5OC)C[C@H]4C)cnn3c(C(F)(F)F)c2C)cc1 (stereo partly drawn) [methanone, [(2R)-4-[1-(4-fluoro-2-methoxyphenyl)-2-hydroxyethyl]-2-methyl-1-piperazinyl][5-(4-methoxyphenyl)-6-methyl-7-(trifluoromethyl)pyrazolo[1,5-α]pyrimidin-3-yl]-] | < 1 | < 1
10 | COc1ccc(-c2nc3c(C(=O)N4CCN(C(CO)c5ccc(F)cc5)C[C@H]4C)cnn3c(C(F)(F)F)c2C)cc1 (stereo partly drawn) [methanone, [(2R)-4-[1-(4-fluorophenyl)-2-hydroxyethyl]-2-methyl-1-piperazinyl][5-(4-methoxyphenyl)-6-methyl-7-(trifluoromethyl)pyrazolo[1,5-α]pyrimidin-3-yl]-] | < 1 | < 1
11 | COc1ccc(-c2nc3c(C(=O)N4CCN(C(CO)c5ccc(Cl)s5)C[C@H]4C)cnn3c(C(F)(F)F)c2C)cc1 (stereo partly drawn) [methanone, [(2R)-4-[1-(5-chloro-2-thienyl)-2-hydroxyethyl]-2-methyl-1-piperazinyl][5-(4-methoxyphenyl)-6-methyl-7-(trifluoromethyl)pyrazolo[1,5-α]pyrimidin-3-yl]-] | < 1 | < 1
12 | COc1ccc(-c2nc3c(C(=O)N4CCN(C(CO)c5cc(F)ccc5OC)C[C@H]4C)cnn3c(C(F)(F)F)c2C)cc1 (stereo partly drawn) [methanone, [(2R)-4-[1-(5-fluoro-2-methoxyphenyl)-2-hydroxyethyl]-2-methyl-1-piperazinyl][5-(4-methoxyphenyl)-6-methyl-7-(trifluoromethyl)pyrazolo[1,5-α]pyrimidin-3-yl]-] | < 1 | < 1
13 | COc1ccc(-c2nc3c(C(=O)N4CCN(C(CO)c5ccc(Br)nc5)C[C@H]4C)cnn3c(C(F)(F)F)c2C)cc1 (stereo partly drawn) [methanone, [(2R)-4-[1-(6-bromo-3-pyridinyl)-2-hydroxyethyl]-2-methyl-1-piperazinyl][5-(4-methoxyphenyl)-6-methyl-7-(trifluoromethyl)pyrazolo[1,5-α]pyrimidin-3-yl]-] | < 1 | < 1
14 | CCOc1ccc(C(CO)N2CCN(C(=O)c3cnn4c(C(F)(F)F)c(C)c(-c5ccc(OC)cc5)nc34)[C@H](C)C2)cn1 (stereo partly drawn) [methanone, [(2R)-4-[1-(6-ethoxy-3-pyridinyl)-2-hydroxyethyl]-2-methyl-1-piperazinyl][5-(4-methoxyphenyl)-6-methyl-7-(trifluoromethyl)pyrazolo[1,5-α]pyrimidin-3-yl]-] | < 1 | < 1
15 | COc1ccc(-c2nc3c(C(=O)N4CCN(C(CO)c5cccc(CN)c5)C[C@H]4C)cnn3c(C(F)(F)F)c2C)cc1 (stereo partly drawn) [methanone, [(2R)-4-[1-[3-(aminomethyl)phenyl]-2-hydroxyethyl]-2-methyl-1-piperazinyl][5-(4-methoxyphenyl)-6-methyl-7-(trifluoromethyl)pyrazolo[1,5-α]pyrimidin-3-yl]-] | > 10.1 | > 10.1
16 | COc1ccc(-c2nc3c(C(=O)N4CCN(C(CO)c5cccc(N(C)C)c5)C[C@H]4C)cnn3c(C(F)(F)F)c2C)cc1 (stereo partly drawn) [methanone, [(2R)-4-[1-[3-(dimethylamino)phenyl]-2-hydroxyethyl]-2-methyl-1-piperazinyl][5-(4-methoxyphenyl)-6-methyl-7-(trifluoromethyl)pyrazolo[1,5-α]pyrimidin-3-yl]-] | < 1 | < 1
17 | COc1ccc(-c2nc3c(C(=O)N4CCN(C(CN(C)C)c5ccccc5)C[C@H]4C)cnn3c(C(F)(F)F)c2C)cc1 (stereo partly drawn) [methanone, [(2R)-4-[2-(dimethylamino)-1-phenylethyl]-2-methyl-1-piperazinyl][5-(4-methoxyphenyl)-6-methyl-7-(trifluoromethyl)pyrazolo[1,5-α]pyrimidin-3-yl]-] | < 1 | < 1
18 | COc1ccc(-c2nc3c(C(=O)N4CCN(C(CO)c5cn[nH]c5)C[C@H]4C)cnn3c(C(F)(F)F)c2C)cc1 (stereo partly drawn) [methanone, [(2R)-4-[2-hydroxy-1-(1H-pyrazol-4-yl)ethyl]-2-methyl-1-piperazinyl][5-(4-methoxyphenyl)-6-methyl-7-(trifluoromethyl)pyrazolo[1,5-α]pyrimidin-3-yl]-] | 1.1 to 10 | 1.1 to 10
19 | COc1ccc(-c2nc3c(C(=O)N4CCN(C(CO)c5cc(F)cc(F)c5F)C[C@H]4C)cnn3c(C(F)(F)F)c2C)cc1 (stereo partly drawn) [methanone, [(2R)-4-[2-hydroxy-1-(2,3,5-trifluorophenyl)ethyl]-2-methyl-1-piperazinyl][5-(4-methoxyphenyl)-6-methyl-7-(trifluoromethyl)pyrazolo[1,5-α]pyrimidin-3-yl]-] | < 1 | < 1
20 | COc1ccc(-c2nc3c(C(=O)N4CCN(C(CO)c5c(F)ccc(F)c5F)C[C@H]4C)cnn3c(C(F)(F)F)c2C)cc1 (stereo partly drawn) [methanone, [(2R)-4-[2-hydroxy-1-(2,3,6-trifluorophenyl)ethyl]-2-methyl-1-piperazinyl][5-(4-methoxyphenyl)-6-methyl-7-(trifluoromethyl)pyrazolo[1,5-α]pyrimidin-3-yl]-] | < 1 | < 1
21 | COc1ccc(-c2nc3c(C(=O)N4CCN(C(CO)c5cccnc5OC)C[C@H]4C)cnn3c(C(F)(F)F)c2C)cc1 (stereo partly drawn) [methanone, [(2R)-4-[2-hydroxy-1-(2-methoxy-3-pyridinyl)ethyl]-2-methyl-1-piperazinyl][5-(4-methoxyphenyl)-6-methyl-7-(trifluoromethyl)pyrazolo[1,5-α]pyrimidin-3-yl]-] | < 1 | < 1
22 | COc1ccc(-c2nc3c(C(=O)N4CCN(C(CO)c5cnc(OC)nc5)C[C@H]4C)cnn3c(C(F)(F)F)c2C)cc1 (stereo partly drawn) [methanone, [(2R)-4-[2-hydroxy-1-(2-methoxy-5-pyrimidinyl)ethyl]-2-methyl-1-piperazinyl][5-(4-methoxyphenyl)-6-methyl-7-(trifluoromethyl)pyrazolo[1,5-α]pyrimidin-3-yl]-] | < 1 | < 1
